Data on seven cell lines can be found in the supplement of paper PMC10307832.

What all share (experiment): relative viability (nuclei count vs DMSO), 5 days (fraction); higher = more cells survive
Compound in assay [1]: Cn1cc(-c2cnn3c(N)c(Br)c([C@@H]4CCCNC4)nc23)cn1 + COc1cccc2cc(-c3nc([C@H]4CC[C@H](C(=O)O)CC4)n4ncnc(N)c34)[nH]c12 [OSI-027] (partner 0.5 µM)
The method, boiled down: (§1)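 Lung cancer cell lines were seeded in 1536-well plates and dosed by pin tool the next day, with either a single drug or a fixed anchor-drug dose combined with five library-drug doses (not always all listed) spaced in √10 steps. Five days later, one step fixed the cells and stained their nuclei (final 0.05% Triton X-100, 1% formaldehyde, 1 ug/ml Hoechst), and nuclei were counted on 4× images. Relative viability is the nuclei count in treated wells divided by the count in vehicle wells, and each value is the median of duplicate plates.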

Compound in assay [2]: Cn1cc(-c2cnn3c(N)c(Br)c([C@@H]4CCCNC4)nc23)cn1 + CC(=O)Nc1cccc(-n2c(=O)n(C3CC3)c(=O)c3c(Nc4ccc(I)cc4F)n(C)c(=O)c(C)c32)c1 [Trametinib] (partner 0.02 µM)
The method, boiled down: as §1

Compound in assay [3]: Cn1cc(-c2cnn3c(N)c(Br)c([C@@H]4CCCNC4)nc23)cn1 + C[C@]1(O)C[C@@H](c2nc(-c3ccc4ccc(-c5ccccc5)nc4c3)c3c(N)nccn32)C1 [Linsitinib] (partner 1 µM)
The method, boiled down: as §1

Compound in assay [4]: Cn1cc(-c2cnn3c(N)c(Br)c([C@@H]4CCCNC4)nc23)cn1 + CS(=O)(=O)CCNCc1ccc(-c2ccc3ncnc(Nc4ccc(OCc5cccc(F)c5)c(Cl)c4)c3c2)o1 [Lapatinib] (partner 2 µM)
In outline:
as §1

For the cell line PC-3 [JPC-3], the relative viability in assay [1] (first compound 0.05 µM) amounted to 0.717; in assay [1] (first compound 0.1581 µM) it was 0.918; in assay [1] (first compound 0.5 µM) it was 0.804; in assay [1] (first compound 1.581 µM) it was 0.702; in assay [1] (first compound 5 µM), 0.847; in assay [2] (first compound 0.05 µM), 0.693. The relative viability in assay [2] (first compound 0.1581 µM) came to 0.705; in assay [2] (first compound 1.581 µM) it was 0.642; in assay [2] (first compound 5 µM), 0.608; in assay [3] (first compound 0.05 µM) it was 0.966; in assay [3] (first compound 0.1581 µM) it was 0.989; in assay [3] (first compound 0.5 µM), 0.975. For the same cell line, the relative viability in assay [3] (first compound 1.581 µM) was 0.975; in assay [3] (first compound 5 µM), 1.03; in assay [4] (first compound 0.05 µM), 0.423; in assay [4] (first compound 0.1581 µM) it was 0.504; in assay [4] (first compound 0.5 µM) it was 0.474; in assay [4] (first compound 1.581 µM), 0.416. In addition, in assay [4] (first compound 5 µM), the relative viability amounted to 0.482.
For PC-14, the relative viability amounted to 1.02 in assay [1] (first compound 0.05 µM); 0.83 in assay [1] (first compound 0.1581 µM); 0.638 in assay [1] (first compound 0.5 µM); 0.248 in assay [1] (first compound 1.581 µM); 0.206 in assay [1] (first compound 5 µM); 0.816 in assay [2] (first compound 0.05 µM). In addition, the relative viability in assay [2] (first compound 0.1581 µM) is 0.929; in assay [2] (first compound 0.5 µM), 0.581; in assay [2] (first compound 1.581 µM) it was 0.337; in assay [2] (first compound 5 µM), 0.272; in assay [3] (first compound 0.05 µM), 0.854; in assay [3] (first compound 0.1581 µM), 1.11. Besides, the relative viability in assay [3] (first compound 0.5 µM) turned out to be 1.05; in assay [3] (first compound 1.581 µM), 0.877; in assay [3] (first compound 5 µM) it was 0.578; in assay [4] (first compound 0.05 µM), 0.322; in assay [4] (first compound 0.1581 µM), 0.366; in assay [4] (first compound 0.5 µM), 0.363. For the same cell line, the relative viability came out at 0.332 in assay [4] (first compound 1.581 µM) and 0.257 in assay [4] (first compound 5 µM).
With RERF-LC-KJ, the relative viability in assay [1] (first compound 0.05 µM) stood at 0.639; in assay [1] (first compound 0.1581 µM), 0.543; in assay [1] (first compound 0.5 µM) it was 0.535; in assay [1] (first compound 1.581 µM), 0.527; in assay [1] (first compound 5 µM) it was 0.511; in assay [2] (first compound 0.05 µM), 0.88. Also, the relative viability is 0.839 in assay [2] (first compound 0.1581 µM); 0.835 in assay [2] (first compound 0.5 µM); 0.8 in assay [2] (first compound 1.581 µM); 0.657 in assay [2] (first compound 5 µM); 0.932 in assay [3] (first compound 0.05 µM); 0.936 in assay [3] (first compound 0.1581 µM). The relative viability in assay [3] (first compound 0.5 µM) turned out to be 0.914; in assay [3] (first compound 1.581 µM), 0.809; in assay [3] (first compound 5 µM), 0.749; in assay [4] (first compound 0.05 µM), 0.917; in assay [4] (first compound 0.1581 µM) it was 0.966; in assay [4] (first compound 0.5 µM) it was 0.862. The relative viability in assay [4] (first compound 1.581 µM) worked out at 0.828; in assay [4] (first compound 5 µM), 0.771.
Consider SK-LU-1, for which the relative viability came to 0.39 in assay [1] (first compound 0.05 µM); 0.279 in assay [1] (first compound 0.1581 µM); 0.237 in assay [1] (first compound 0.5 µM); 0.248 in assay [1] (first compound 1.581 µM); 0.183 in assay [1] (first compound 5 µM); 0.616 in assay [2] (first compound 0.05 µM). In addition, the relative viability was found to be 0.423 in assay [2] (first compound 0.1581 µM); 0.422 in assay [2] (first compound 0.5 µM); 0.328 in assay [2] (first compound 1.581 µM); 0.292 in assay [2] (first compound 5 µM); 1.13 in assay [3] (first compound 0.05 µM); 0.465 in assay [3] (first compound 0.5 µM). Moreover, the relative viability is 0.318 in assay [3] (first compound 1.581 µM); 0.255 in assay [3] (first compound 5 µM); 0.871 in assay [4] (first compound 0.05 µM); 0.585 in assay [4] (first compound 0.1581 µM); 0.758 in assay [4] (first compound 0.5 µM); 0.321 in assay [4] (first compound 1.581 µM). For the same cell line, in assay [4] (first compound 5 µM), the relative viability is 0.19.
Consider SK-MES-1, for which the relative viability in assay [1] (first compound 0.05 µM) came out at 0.621; in assay [1] (first compound 0.1581 µM) it was 0.562; in assay [1] (first compound 0.5 µM), 0.416; in assay [1] (first compound 1.581 µM) it was 0.244; in assay [1] (first compound 5 µM) it was 0.16; in assay [2] (first compound 0.05 µM), 0.595. The relative viability was found to be 0.567 in assay [2] (first compound 0.1581 µM); 0.607 in assay [2] (first compound 0.5 µM); 0.346 in assay [2] (first compound 1.581 µM); 0.222 in assay [2] (first compound 5 µM); 1.05 in assay [3] (first compound 0.05 µM); 1.1 in assay [3] (first compound 0.1581 µM). Also, the relative viability in assay [3] (first compound 0.5 µM) amounted to 1.04; in assay [3] (first compound 1.581 µM), 0.971; in assay [3] (first compound 5 µM), 0.289; in assay [4] (first compound 0.05 µM), 0.491; in assay [4] (first compound 0.1581 µM), 0.544; in assay [4] (first compound 0.5 µM) it was 0.514. Moreover, the relative viability in assay [4] (first compound 1.581 µM) was 0.392; in assay [4] (first compound 5 µM), 0.431.
On to SW 1573, for which the relative viability in assay [1] (first compound 0.05 µM) is 0.547; in assay [1] (first compound 0.1581 µM) it was 0.745; in assay [1] (first compound 0.5 µM) it was 0.606; in assay [1] (first compound 1.581 µM), 0.505; in assay [1] (first compound 5 µM), 0.465; in assay [2] (first compound 0.05 µM), 0.538. In addition, the relative viability in assay [2] (first compound 0.1581 µM) is 0.642; in assay [2] (first compound 0.5 µM), 0.558; in assay [2] (first compound 1.581 µM) it was 0.506; in assay [2] (first compound 5 µM) it was 0.516; in assay [3] (first compound 0.05 µM), 0.689; in assay [3] (first compound 0.1581 µM) it was 0.775. For the same cell line, the relative viability in assay [3] (first compound 0.5 µM) amounted to 0.888; in assay [3] (first compound 1.581 µM), 0.753; in assay [3] (first compound 5 µM) it was 0.805; in assay [4] (first compound 0.05 µM), 1.14; in assay [4] (first compound 0.1581 µM) it was 1.22; in assay [4] (first compound 0.5 µM), 1.15. In addition, the relative viability amounted to 1.01 in assay [4] (first compound 1.581 µM) and 1.1 in assay [4] (first compound 5 µM).
Regarding UMC-11, the relative viability in assay [1] (first compound 0.05 µM) is 0.495; in assay [1] (first compound 0.1581 µM), 0.427; in assay [1] (first compound 0.5 µM), 0.438; in assay [1] (first compound 1.581 µM), 0.267; in assay [1] (first compound 5 µM), 0.279; in assay [2] (first compound 0.05 µM), 0.753. Further, the relative viability in assay [2] (first compound 0.1581 µM) turned out to be 0.684; in assay [2] (first compound 0.5 µM) it was 0.502; in assay [2] (first compound 1.581 µM) it was 0.579; in assay [2] (first compound 5 µM), 0.402; in assay [3] (first compound 0.05 µM), 1.18; in assay [3] (first compound 0.1581 µM), 1.08. Also, the relative viability in assay [3] (first compound 0.5 µM) turned out to be 0.991; in assay [3] (first compound 1.581 µM) it was 0.818; in assay [3] (first compound 5 µM) it was 0.507; in assay [4] (first compound 0.05 µM), 1.09; in assay [4] (first compound 0.1581 µM), 1; in assay [4] (first compound 0.5 µM) it was 0.699. The relative viability in assay [4] (first compound 1.581 µM) amounted to 0.624; in assay [4] (first compound 5 µM), 0.463.
